Experimental findings from ChEMBL document CHEMBL1157539, “Thousands of chemical starting points for antimalarial lead identification” (Nature, 2010) are described below.

The test system of the test is Plasmodium falciparum. Kind of test: GSK_TCMDC: Inhibition of Plasmodium falciparum 3D7 in whole erythrocytes, using parasite LDH activity as an index of growth. Type of test: functional, organism-based. As to conditions: Plasmodium falciparum, 3D7.
`CCOC(=O)CCCOc1c(OC)cc(Cc2cnc(N)nc2N)cc1OC` returned an XC50 of 778 nM.

Compound `CC1CCCN1Cc1ccc(-c2ccc3c(=O)cc(CCc4cccc(F)c4F)n(CC(=O)N(C)Cc4ccc(-c5ccc(C(F)(F)F)cc5)cc4)c3n2)cc1` (configuration not stated) returned an XC50 of 823 nM.

As for `COc1ccc(Cl)cc1NC(=O)Nc1cc(C)nc2ccccc12`, the XC50 worked out at 287 nM.

Turning to `Cc1cccc2nc(-c3cccc(-c4ccc(NC(=O)c5ccoc5)cc4)c3)[nH]c12`, the XC50 turned out to be 703 nM. The figure for `CC(Cc1ccc(OCCOc2ccccc2)cc1)NCC(O)c1cccc(C(F)(F)F)c1` (configuration not stated) is 968 nM; for `CC(C)c1ccc(-c2nc3cc(Cl)cnc3[nH]2)cc1` it is 857 nM. The figure for `Cc1ccc(C(=O)Nc2cc(S(=O)(=O)N3CCCC3)ccc2OCC(F)(F)F)cc1` is 851 nM. `NCc1ccc(-c2ccc3c(N)nccc3c2)cc1` gave an XC50 of 885 nM. Consider `Clc1ccc(-c2nc(-c3ccncc3)c[nH]2)cc1Cl`, for which the XC50 was determined as 1060 nM. Turning to `CCCNC(=O)C1CCN(C(c2ccc(Cl)cc2)c2ccc(Cl)cc2)CC1`, the XC50 came out at 479 nM. Then `Cn1c(CN2CCC(N3CCc4cc(NC(=O)c5ccco5)ccc43)C2)cc2ccccc21` (configuration not stated), with 876 nM. For `COc1cc2c(cc1OC)CN(c1cc(N)c3cc(OC)c(OC)cc3n1)CC2`, the XC50 worked out at 552 nM. Then `Cc1cc(N[C@@H](Cc2ccccc2)C(=O)Nc2ccccc2)nc(NCCc2ccc(F)cc2)n1`, with 860 nM; and `O=C(Cc1cccs1)NC(CCCN1CCC(Oc2cccc(Cl)c2)CC1)c1ccc(Cl)c(Cl)c1` (configuration not stated), with 247 nM.

As for `O=C(Nc1ccc(Cl)cc1)OCCn1nnnc1C(c1ccc(Cl)cc1)N1CCOCC1` (configuration not stated), the XC50 came out at 1180 nM.

The compound `c1ccc(Oc2ccc(Nc3ccnc4cc(-c5cccc(CNCCN6CCOCC6)c5)ccc34)cc2)cc1` came in with an XC50 of 391 nM.

Consider `CC[C@H]1CN2CC[C@H]1C[C@H]2[C@H](O)c1ccnc2ccc(C#N)cc12`, for which the XC50 is 147 nM.

Turning to `COc1ccc(CNC2CCN(C)CC2)cc1-c1ccc(S(=O)(=O)NCc2cccnc2)s1`, the XC50 was determined as 835 nM. The figure for `C[C@H](Cc1ccc(OCCNC[C@H](O)c2cccc(Cl)c2)cc1)NC[C@H](O)c1ccc(Cl)c(Cl)c1` is 958 nM; for `Nc1ccc(-c2nc3cc(-c4ccc5[nH]c(-c6ccc(N)cc6)nc5c4)ccc3[nH]2)cc1` it is 129 nM. Compound `FC(F)(F)c1ccc2[nH]c(-c3ccc(-c4cccc(CNCC5CCCO5)c4)s3)nc2c1` (configuration not stated) returned an XC50 of 367 nM. Then `COc1ccc2c(=NN=Cc3ccc(OC)c4ccccc34)cc(C)[nH]c2c1`, with 599 nM; and `Oc1cccc(-c2nc(-c3ccccc3)c(-c3ccc(Oc4ccc(-c5[nH]c(-c6cccc(O)c6)nc5-c5ccccc5)cc4)cc3)[nH]2)c1`, with 855 nM.

Take `Cc1ccc(-c2ccc3c(c2)C=C(C(=O)NC2CCN(CCNC(=O)c4cccs4)CC2)CCC3)cc1`: the XC50 was found to be 227 nM. Then `O=C(NCC1CCN(CC2CCCCC2)C1)c1cc(-c2cccc(C(F)(F)F)c2)cs1` (configuration not stated), with 738 nM; and `CN1CCN(Cc2c(O)ccc3c(=O)c(Oc4ccc(C(C)(C)C)cc4)c(C(F)(F)F)oc23)CC1`, with 812 nM. Then `CN1CCCc2ccc(NC(=O)C=Cc3ccc(-c4ccc(F)cc4F)o3)cc2C1`, with 522 nM; and `CN1CCCC(CN2CCN(Cc3ccc(-c4ccc(-c5nc6cc(F)ccc6[nH]5)s4)cc3)CC2)C1` (configuration not stated), with 127 nM; and `O=C(Nc1cccc(-c2nn3ncccc3c2-c2ccnc(Nc3cccnc3)n2)c1)c1c(F)cccc1F`, with 528 nM. Then `c1ccc(C2CCC(N3CCC(N4CCN(c5ccccc5)CC4)CC3)CC2)cc1` (configuration not stated), with 764 nM; and `Cc1c(C)c2c(c(C)c1O)CC[C@@](C)(C(=O)NC1CCC(CN3CCC(c4c[nH]c5ccccc45)CC3)CC1)O2` (some centres not stated), with 965 nM; and `CN(C)CCCNC(=O)c1ccccc1Sc1ccccc1C#N`, with 1140 nM. Consider `Cc1ccc(Nc2nc(C)cc(NC3CCCC3)n2)cc1`, for which the XC50 stood at 292 nM. Then `COc1ccc2nc(N(CCCn3ccnc3)C(=O)C=Cc3cccs3)sc2c1`, with 1050 nM; and `COc1ccc(CCc2ccc(-c3c(C)[nH]c(C)c(Cl)c3=O)cc2)cc1OC`, with 94 nM; and `CS(=O)(=O)c1ccc(CCNCc2ccc(-c3ccc(CN(C(=O)C4CC(=O)c5ccccc54)C4Cc5ccccc5C4)cc3)nc2)cc1` (configuration not stated), with 858 nM. Then `Clc1ccc(Nc2nc3ccc(Cl)cc3nc2Nc2ccc(Cl)cc2)cc1`, with 133 nM; and `COc1ccc2c(NN=Cc3ccc(F)cc3)ccnc2c1`, with 438 nM; and `CN1CCN(C(C(=O)NCc2cc(Cl)cc(Cl)c2)c2ccccc2-c2ccsc2)CC1` (configuration not stated), with 936 nM. Then `O=C(NCCN1CCCc2ccccc21)C1CCN(c2nc(-c3ccc(Cl)cc3)no2)CC1`, with 695 nM; and `CC(=O)NCCNc1nccc(N2CCc3ncnc(Nc4ccc(OCc5ccccn5)c(Cl)c4)c3C2)n1`, with 822 nM; and `Nc1ccnc2ccc(NC(=O)CCCCCc3ccccc3)cc12`, with 860 nM. For the compound `FC(F)(F)c1ccc2[nH]ccc(=NN=Cc3ccccc3)c2c1`, the XC50 was 1170 nM. The figure for `Cc1ccc(OCCCCON2C(=N)N=C(N)NC2(C)C)cc1C` is 3.2 nM.

As for `O=C(Nc1ccc(Cl)cc1)Nc1cccc(-c2cccc(-c3nc4cc(C(F)(F)F)ccc4[nH]3)c2)c1`, the XC50 worked out at 227 nM.

Compound `COc1ccc(-c2cnn3ccc(Nc4cc(OC)c(OC)c(OC)c4)nc23)cc1OC` showed an XC50 of 650 nM. The figure for `O=C(/C=C/c1ccc(Cl)c(Cl)c1)NCCCCCN1CCC(NC(=O)Nc2cccc(C(F)(F)F)c2)CC1` is 697 nM. Then `N=C(N)NCCN(Cc1ccccc1)c1ccccc1`, with 345 nM; and `O=C(/C=C/c1cccc(OC(F)(F)F)c1)NCCCCCN1CCC(c2c[nH]c3ccccc23)CC1`, with 958 nM. The figure for `Nc1nccc2ccc(-c3ccc4nccn4c3)cc12` is 101 nM; for `Cc1cc(OCCCN2CCC(NS(=O)(=O)c3ccc(Cl)c(Cl)c3)CC2)c2ccccc2n1` it is 897 nM; for `CCOc1cc(C(=O)NCc2cc(Cl)cc(Cl)c2)ccc1-c1nc2cc(Cl)ccc2[nH]1` it is 730 nM. For the compound `CC(=O)c1ccc(-c2ccc(C(=O)NCCCCN3CCC(c4ccc5c(c4OCC(N)=O)CCCC5)CC3)cc2)s1`, the XC50 was 893 nM. In the case of `O=C(c1cccc(-c2ccc(-c3nc4cc(C(F)(F)F)ccc4[nH]3)cc2)c1)N1CCCCC1CN1CCC(O)C1` (configuration not stated), the XC50 turned out to be 465 nM. The figure for `O=C(Nc1ccc2c(c1)CCC2)c1ccc(N2CCN(c3ccncc3)CC2)cn1` is 862 nM; for `NOCCCCOc1ccc(Br)cc1` it is 189 nM. In the case of `CN(C)[C@@H]1C(O)=C(C(N)=O)C(=O)[C@@]2(O)C(O)=C3C(=O)c4c(O)ccc(C#Cc5ccccn5)c4C[C@H]3C[C@@H]12`, the XC50 came to 760 nM. As to `CN(C)CCCNCCS(=O)(=O)c1cccc(Nc2ccc(-c3cccc(N(C)C)c3)cn2)c1`, the XC50 came out at 859 nM. Then `CCCCc1cc(N2CCC(NC(C)=O)C2)nc(Nc2ccc(C)cc2)n1` (configuration not stated), with 866 nM. Then `CC(=O)N(Cc1cccc(-c2cccc(CNCCc3ccccc3)c2)c1)C1CCN(Cc2ccccc2)CC1`, with 670 nM; and `Cc1cccc2nc(-c3cccc(-c4ccc(CN5CCN(CCO)CC5)cc4)c3)[nH]c12`, with 823 nM.

With `COc1cccc(C(=O)Nc2ccc(-c3nc4ccccc4[nH]3)cc2)c1`, the XC50 turned out to be 802 nM. The figure for `COc1ccccc1CN1CCC(CNC(=O)c2cc(-c3ccc(N(C)C)cc3)cs2)C1` (configuration not stated) is 1270 nM; for `Nc1c2ccccc2nc2cc(C(F)(F)F)ccc12` it is 842 nM; for `O=C(Nc1ccc(Cl)c(Cl)c1)Nc1ccc(F)c([N+](=O)[O-])c1` it is 696 nM. For the compound `CCOc1ccc(CCC(=O)O)cc1OCC`, the XC50 worked out at 1030 nM.

As to `Cc1ccc(C(=O)Nc2ccc(Nc3ccnc4cc(-c5nccs5)ccc34)cc2O)cc1`, the XC50 was 47.8 nM. The figure for `CC(Cc1ccc(NC(=O)CCNCc2ccccc2)cc1)NCCc1cccc(Cl)c1` (configuration not stated) is 147 nM; for `O=C(CN1CCN(C(=O)c2ccco2)CC1)Nc1ccc(Br)cc1Cl` it is 773 nM; for `CON(CCCN(C)C)C(=N)N` it is 1080 nM.

The compound `CCN(CC)C(=O)C1CCN(C(C(=O)N2CCN(CC(=O)N3CCCC3)CC2)c2cc3ccccc3o2)CC1` (configuration not stated) yielded an XC50 of 707 nM. Then `CN1CCCN(c2ccnc3cc4c(cc23)N(C(=O)c2ccc(Cl)c(Cl)c2)CC4)CC1`, with 870 nM; and `O=C(c1ccc(-c2ccc(-c3nc4ccccc4[nH]3)s2)cc1)N1CCCCC1CN1CCC(O)C1` (configuration not stated), with 1050 nM. Then `CC[C@H]1CN2CC[C@H]1C[C@H]2[C@H](O)c1cc(-c2ccccc2C(F)(F)F)nc2ccc(OC)cc12`, with 234 nM; and `CC(C)c1cc2c(cc1O)C(Cc1ccccc1Cl)N(C)CC2` (configuration not stated), with 732 nM; and `C=CCn1c(SCc2c(C)noc2C)nc2scc(-c3cccs3)c2c1=O`, with 1100 nM. `COc1c(C2CCN(CCCCNC(=O)c3noc(-c4ccc(C#N)cc4)n3)CC2)ccc2c1CCCC2` gave an XC50 of 776 nM. The figure for `Cc1cccc(-c2c(C)nc(N)nc2N)c1` is 1150 nM.

In the case of `COc1ccc2[nH]c(C)cc(=NN=Cc3cccc(F)c3)c2c1`, the XC50 was 285 nM. Then `CC(=O)Nc1nc(C(=O)Nc2ccc(-c3cccc(-c4nc5cc(F)ccc5[nH]4)c3)cc2)cs1`, with 292 nM; and `CC1(C)N=C(NC(=O)Nc2ccc([N+](=O)[O-])cc2)N=C(N)N1OCc1cccc2ccccc12`, with 59.5 nM. Then `Cc1ccc(NC(=O)c2ccc(CN3CCCN(Cc4cccc(Cl)c4)CC3)cc2)cc1C`, with 1210 nM; and `CC[C@H]1CN2CC[C@H]1C[C@H]2[C@H](O)c1cc(-c2ccc(F)cc2C)nc2ccc(OC)cc12`, with 157 nM; and `Cc1ccc(Cn2c(N3CCC(C(=O)NCc4cccs4)CC3)nc3ccccc32)cc1`, with 748 nM.

The compound `CS(=O)(=O)Nc1ccc2c(C3CCN(CC4CCN(C(=O)/C=C/c5ccc(Cl)c(Cl)c5)CC4)CC3)c[nH]c2c1` returned an XC50 of 761 nM. Consider `C=C[C@H]1CN2CC[C@H]1C[C@H]2[C@H](O)c1ccnc2ccc(OC)cc12`, for which the XC50 stood at 426 nM.

`COc1ccccc1CCNC(=O)c1cc(Br)cc(N2CCN(c3ccncc3)CC2)c1` had an XC50 of 1270 nM.
